This note sets out measurements from ChEMBL document CHEMBL1201862, “PubChem BioAssay data set” (2004).

Some test systems named below: A549; HCC 2998; HCT-15; M14; MDA-MB-435; MDA-N; MOLT-4; Malme-3M; OVCAR-3; OVCAR-4; OVCAR-8; SK-MEL-28; SK-MEL-5; SN12C; SNB-19; NCI/ADR-RES; RXF 393; SF-295; HOP-92; SF-539.
Experiment in all cases: NCI-60 cell line screen, 48 h

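In this assay, cells in 96-well plates receive the compound at five concentrations for 48 hours. Endpoints are linearly interpolated between the surrounding concentrations. The concentration for 50% growth inhibition is given as GI50.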 Active and inactive are the calls of the source. Rule as the data show it: active = GI50 up to about 1.1 µM and inactive = higher. Where a SMILES comes first, the peptide text is derived from it. The star is where a group is joined. Boc = CC(C)(C)OC(=O)* A value given as a limit tells only on which side of the number the result lay.

In the case of `COC(=O)C(Cc1c[nH]c2ccccc12)NC(=O)C(Cc1c[nH]c2ccccc12)NC(=O)C(Cc1c[nH]c2ccccc12)NC(=O)C(Cc1c[nH]c2ccccc12)NC(=O)C(Cc1c[nH]c2ccccc12)NC(=O)C(Cc1c[nH]c2ccccc12)NC(=O)C(Cc1c[nH]c2ccccc12)NC(=O)OC(C)(C)C` (stereo not given) (Boc-WWWWWWW-OMe; configuration not given here), the GI50 with A549 was 31.9 µM (inactive); in the test on HCC 2998, > 100 µM (inactive); in the test on HCT-15, over 100 µM; in the test with M14, 21.7 µM (inactive); in the test on MDA-MB-435 it was > 100 µM (inactive); in the test on MDA-N, 63.7 µM (inactive). Further, the GI50 was 40.6 µM (inactive) with MOLT-4; 34.5 µM (inactive) in the test on Malme-3M; > 100 µM (inactive) in the test with OVCAR-3; > 100 µM (inactive) in the test on OVCAR-4; > 100 µM (inactive) in the test on OVCAR-8; 35.6 µM (inactive) with SK-MEL-28. Also, the GI50 in the test with SK-MEL-5 was 20.9 µM (inactive); in the test on SN12C it was 62.2 µM (inactive); in the test on SNB-19, 47.8 µM (inactive).

`O=c1[nH]c(=O)n(C2CC(O)C(CO)O2)cc1Oc1ccccc1` (stereo not given): the GI50 in the test on A549 is > 100 µM (inactive); in the test with HCT-15, over 100 µM; in the test with M14, > 100 µM (inactive); with MDA-MB-435, > 100 µM (inactive); in the test with MDA-N, > 100 µM (inactive); in the test on MOLT-4 it was > 100 µM (inactive). Besides, the GI50 with Malme-3M, with NCI/ADR-RES, in the test with OVCAR-3, in the test with OVCAR-4, with OVCAR-8 and in the test on RXF 393 was > 100 µM (inactive) throughout. For the same compound, the GI50 was 47.4 µM (inactive) with SF-295; > 100 µM (inactive) with SK-MEL-28; > 100 µM (inactive) in the test with SK-MEL-5; > 100 µM (inactive) in the test on SN12C; > 100 µM (inactive) in the test with SNB-19.

`Cc1nnc2n1N=C(c1cc(F)c(Cl)cc1Cl)/C(=C/c1ccc(-c3ccc([N+](=O)[O-])cc3)o1)S2`: the GI50 in the test on A549 was > 100 µM (inactive); in the test on HCC 2998 it was > 100 µM (inactive); in the test on HCT-15 it was 53.5 µM; with HOP-92, > 100 µM (inactive); in the test with M14 it was > 100 µM (inactive); with MDA-MB-435, 50.4 µM (inactive). Also, the GI50 in the test with MOLT-4 was 29.2 µM (inactive); in the test on Malme-3M it was > 100 µM (inactive); with NCI/ADR-RES, > 100 µM (inactive); in the test with OVCAR-3 it was > 100 µM (inactive); in the test with OVCAR-4, 66.5 µM (inactive); in the test with OVCAR-8, 35.7 µM (inactive). In addition, the GI50 in the test with SF-295 was > 100 µM (inactive); in the test with SK-MEL-28 it was > 100 µM (inactive); with SK-MEL-5, 56.9 µM (inactive); in the test on SN12C it was 35.3 µM (inactive); in the test on SNB-19, > 100 µM (inactive).

For `CC(SC(=S)N1CCCC1)C(=O)Nc1nnc(-c2ccc(Cl)cc2)o1` (stereo not given), the GI50 in the test on A549 was 31 µM (inactive); in the test with HCC 2998 it was 57.4 µM (inactive); with HCT-15, 17 µM; in the test on HOP-92 it was 65.8 µM (inactive); in the test with M14, 15.5 µM (inactive); in the test with MDA-MB-435, 36.1 µM (inactive). Further, the GI50 with Malme-3M is 23.8 µM (inactive); in the test with NCI/ADR-RES, 22.8 µM (inactive); in the test with OVCAR-3, 32.7 µM (inactive); with OVCAR-4, 35.5 µM (inactive); with OVCAR-8, 40.1 µM (inactive); in the test with RXF 393, 55.2 µM (inactive). In addition, the GI50 is 85.3 µM (inactive) in the test on SF-539; 46.7 µM (inactive) in the test with SK-MEL-28; 29.5 µM (inactive) in the test on SK-MEL-5; 17.7 µM (inactive) with SN12C; 35.6 µM (inactive) in the test on SNB-19.

As to `Cc1cccc(NC(=S)Nc2ccc(Cl)cc2)n1`, the GI50 with HCC 2998 was > 100 µM (inactive); in the test on HCT-15, over 100 µM; with HOP-92, > 100 µM (inactive); in the test on M14 it was > 100 µM (inactive); with MDA-MB-435, > 100 µM (inactive); in the test on MOLT-4, > 100 µM (inactive). Also, the GI50 in the test on NCI/ADR-RES, with OVCAR-4, with OVCAR-8, in the test on RXF 393, in the test on SF-295 and in the test on SF-539 was > 100 µM (inactive) throughout. For the same compound, the GI50 with SK-MEL-28, in the test on SK-MEL-5 and with SNB-19 was > 100 µM (inactive) throughout.

Regarding `COc1ccc(-c2nc(-c3cnccn3)n(C3OC(CO)C(O)C3O)n2)cc1` (stereo not given), the GI50 with A549 is > 10 µM (inactive); with HCC 2998, > 10 µM (inactive); in the test with HCT-15, over 10 µM; in the test with HOP-92, > 10 µM (inactive); in the test on M14, > 10 µM (inactive); with MDA-MB-435 it was > 10 µM (inactive). Further, the GI50 with MOLT-4, in the test with Malme-3M, with NCI/ADR-RES, in the test with OVCAR-3, in the test on OVCAR-4 and in the test with OVCAR-8 was > 10 µM (inactive) each time. The GI50 in the test on SF-295, in the test with SF-539, in the test with SN12C and with SNB-19 was > 10 µM (inactive) throughout.

Consider `Cn1c(N)cc(=O)nc1N`, for which the GI50 is > 100 µM (inactive) in the test on A549; > 100 µM (inactive) in the test with HCC 2998; over 100 µM with HCT-15; > 100 µM (inactive) in the test on M14; > 100 µM (inactive) in the test with MDA-MB-435; > 100 µM (inactive) in the test on MDA-N. Further, the GI50 in the test with MOLT-4, in the test on Malme-3M, in the test on NCI/ADR-RES, in the test on OVCAR-3, in the test with OVCAR-4 and in the test with OVCAR-8 was > 100 µM (inactive) each time. Further, the GI50 with SF-295, in the test with SF-539, in the test with SK-MEL-28, in the test on SK-MEL-5, in the test with SN12C and with SNB-19 was > 100 µM (inactive) in each case.

In the case of `OCC(O)C(O)C(C=NNc1ncnc2ccc(Br)cc12)=NNc1ncnc2ccc(Br)cc12` (stereo not given), the GI50 with A549 was 6.3 µM (inactive); in the test on HOP-92, 4.3 µM (inactive); in the test on M14, 3.48 µM (inactive); with MDA-MB-435, 4.79 µM (inactive); in the test on MDA-N, 5.06 µM (inactive); in the test with MOLT-4 it was 0.282 µM (active). For the same compound, the GI50 with Malme-3M is 1.84 µM (inactive); with OVCAR-3, 0.344 µM (active); in the test on OVCAR-4, 0.435 µM (active); in the test with OVCAR-8, 1.72 µM (inactive); with SF-295, 4.74 µM (inactive); in the test with SF-539, 3.13 µM (inactive). For the same compound, the GI50 with SK-MEL-5 was 1.22 µM (inactive); with SN12C, 6.84 µM (inactive); with SNB-19 it was 6.04 µM (inactive).

For the compound `COC(=O)c1cc(S(=O)(=O)NC2=NNC(C)CN2)c(S)cc1Cl` (stereo not given), the GI50 with A549 was 30.1 µM (inactive); in the test with HCC 2998, 42.3 µM (inactive); in the test on HCT-15, 37.8 µM; in the test on M14 it was 31.5 µM (inactive); with MDA-MB-435, 40.3 µM (inactive); with MDA-N, 35.3 µM (inactive). Also, the GI50 in the test on MOLT-4 was 77.3 µM (inactive); in the test with Malme-3M, 24 µM (inactive); in the test on NCI/ADR-RES it was 39.8 µM (inactive); with OVCAR-3 it was 38.3 µM (inactive); in the test on OVCAR-4, 33.9 µM (inactive); in the test on OVCAR-8, 34.8 µM (inactive). In addition, the GI50 in the test with SF-295 is 54.3 µM (inactive); in the test on SF-539, 40.5 µM (inactive); in the test on SK-MEL-28, 36.7 µM (inactive); with SK-MEL-5, 26.4 µM (inactive); in the test on SN12C it was > 100 µM (inactive); in the test on SNB-19 it was 85.1 µM (inactive).

For `COc1ccc2cc(C(=O)Nc3ccc(O)c(C(=O)O)c3)ccc2c1OC`, the GI50 in the test on HCC 2998 is > 100 µM (inactive); with HCT-15, over 100 µM; with M14 it was > 100 µM (inactive); with MDA-MB-435, > 100 µM (inactive); with MDA-N, > 100 µM (inactive); in the test with MOLT-4, > 100 µM (inactive). For the same compound, the GI50 is > 100 µM (inactive) with Malme-3M; > 100 µM (inactive) with NCI/ADR-RES; > 100 µM (inactive) in the test on OVCAR-3; 72.6 µM (inactive) in the test on OVCAR-4; > 100 µM (inactive) in the test with OVCAR-8; > 100 µM (inactive) in the test on SF-539. For the same compound, the GI50 in the test with SK-MEL-28, with SK-MEL-5, in the test with SN12C and with SNB-19 was > 100 µM (inactive) in each case.

On to `COc1ccc(/C=C2\N=C(c3ccccc3)OC2=O)cc1OC(C)=O`, for which the GI50 in the test on A549 is > 100 µM (inactive); with HCC 2998, 93.5 µM (inactive); with HCT-15, 49.4 µM; with HOP-92, 54.1 µM (inactive); in the test with M14, 99.8 µM (inactive); with MDA-MB-435, 51.8 µM (inactive). Further, the GI50 with MOLT-4 was 0.615 µM (active); with Malme-3M, 13.5 µM (inactive); in the test with NCI/ADR-RES, > 100 µM (inactive); in the test on OVCAR-3, 48.9 µM (inactive); in the test on OVCAR-4 it was 63.1 µM (inactive); in the test on OVCAR-8, 50.4 µM (inactive). Also, the GI50 is > 100 µM (inactive) with RXF 393; > 100 µM (inactive) in the test on SF-539; > 100 µM (inactive) with SK-MEL-28; 63 µM (inactive) in the test on SK-MEL-5; > 100 µM (inactive) with SN12C; > 100 µM (inactive) in the test with SNB-19.

With `FC(F)(F)c1ccccc1N1CCN(c2nc(-c3cccs3)nc3ccc(Br)cc23)CC1`, the GI50 was 33.8 µM (inactive) in the test on A549; 4.58 µM (inactive) in the test on HCC 2998; 7.46 µM in the test on HCT-15; < 0.01 µM (active) with HOP-92; 38.7 µM (inactive) in the test with M14; 23.9 µM (inactive) in the test with MDA-MB-435. Also, the GI50 is 44.5 µM (inactive) in the test with MOLT-4; 24 µM (inactive) in the test with Malme-3M; 41.8 µM (inactive) in the test with NCI/ADR-RES; 10.9 µM (inactive) in the test with OVCAR-3; 5.16 µM (inactive) with OVCAR-4; 66.2 µM (inactive) with OVCAR-8. The GI50 in the test on SF-295 was 30.3 µM (inactive); in the test on SF-539, 97.3 µM (inactive); with SK-MEL-28 it was 35.8 µM (inactive); with SK-MEL-5 it was 14.6 µM (inactive); in the test on SN12C, 45.8 µM (inactive); in the test with SNB-19 it was 50.7 µM (inactive).
